# Test results taken from US12201796B2, “Devices configured to provide treatment at an Abreu brain thermal tunnel” (Brain Tunnelgenix Technologies Corp., priority 2014, dated 2025).
# Experiments:
# [1] = transdermal melatonin patch on the skin of ABTT target area, research setting; conditions: patch with water, propylene glycol, lauric acid, hydroxypropylcellulose; non-rate-limiting membrane; contact area 1.0 cm^2
# Description: As a solution to this problem, MEL was applied transdermally on the skin of ABTT target area 10 using a patch that contained, in a solvent formulation, water, propylene glycol, lauric acid, and hydroxypropylcellulose, and also comprised a non-rate-limiting membrane designed to have active contact with an area 1.0 cm^2.
# [2] = in vivo; cited from earlier work
# [3] = comparison of caffeine absorption into the blood stream from a patch on ABTT terminus and a patch on an upper arm; assay type: in vivo
# Description: One experimental technique used by Applicant to verify the efficacy of the systems, apparatuses, devices, processes, and methods disclosed herein was to compare absorption of a chemical into the blood stream. The chosen chemical was caffeine, and a comparison was made between distribution of caffeine in the body from a 15 mm by 15 mm patch placed on ABTT terminus 10 and a 15 mm by 15 mm patch placed on an upper arm. Caffeine concentration was measured in the same location on the body. […] As is evident from FIG. 106, the peak concentration of caffeine from the patch placed on the arm occurred five hours after placement of the patch, which peak concentration from the patch placed on ABTT terminus 10 was about 30 minutes after placement of the patch. […] Other compounds tested show similar results. […] In addition, it should be noted that use of a known patch would be disadvantageous if applied to ABTT terminus 10, because a lesser quantity of a drug is required to achieve the same results. […] In order to achieve the same effect at ABTT terminus 10 as application of a conventional patch in a conventional application, only about ⅔ the quantity of a drug is required for the same effect at ABTT terminus 10.
Structure (SMILES),therapeutic effect of patch delivering melatonin through the skin of ABTT target area [1],elimination half-life [2],"time of peak concentration of caffeine after placement of the patch ([3]; 15 mm by 15 mm patch placed on ABTT terminus, FIG. 106 curve 1416)","time of peak concentration of caffeine after placement of the patch ([3]; 15 mm by 15 mm patch placed on upper arm, FIG. 106 curve 1414)","peak concentration from patch on ABTT terminus relative to peak concentration from patch on upper arm ([3]; 15 mm by 15 mm patches, concentration measured in the same location on the body)"
COc1ccc2[nH]cc(CCNC(C)=O)c2c1 [melatonin],shown to provide an intended therapeutic effect,short,–,–,–
Cn1c(=O)c2c(ncn2C)n(C)c1=O [caffeine],–,–,about 30 minutes,five,more than twice as high
